According to US7291451B2, “Modulation of pericyte proliferation” (XOMA Technology Ltd., priority 2000, dated 2007):

Key:
[1] = tested on: Bovine retinal pigment epithelial cells (RPEC); test: Cell growth assay in bovine retinal pigment epithelial cells; type: cell-based; settings: 15 μg/ml
Protocol: A cell growth assay was performed as follows: Cells were plated onto 12-well culture plates and incubated overnight. The cells were treated with vehicle, vascular endothelial growth factor (VEGF, R & D Systems, Minneapolis, Minn.) at 25 ng/ml, serum, compounds, or combinations thereof. The medium is changed during the incubation period, with fresh medium and fresh test compound added every 2 days. After incubation for indicated time period at 37° C., the cells were lysed in 0.1% SDS and DNA content was measured by means of Hoechst-33258 dye and a fluorometer (model TKO-100, Hoefer Scientific Instruments, San Francisco, Calif.). It has been shown that total cellular DNA content measured in this manner correlates closely with actual cell number as determined by hemocytometer counting of trypsinized cells.
Bovine retinal pigment epithelial cells (RPEC) were isolated by gentle scraping after removal of the neural retina and incubation with 0.2% collagenase as described in King et al., Diabetes, 1987, 36:1460-7. RPEC were cultured in DMEM with 5.5 mM glucose and 10% calf serum (CS, Gibco BRL, Grand Island, N.Y.). Cells were cultured in 5% CO2 at 37° C., and media were changed every other days. Cells were characterized for their homogeneity by immunoreactivity with anti-cytokeratin antibody for RPEC. […]

[2] = tested on: retinal neovascularization; test: Oxygen-pulse induced retinal neovascularization in newborn rats; type: in vivo; settings: for retinal neovascular score (sum of quadrant scores): P18, vehicle 6.41
Protocol: In contrast to the assay for anti-angiogenesis effect of BPI protein products in neonatal mice described in part A above, experiments were conducted in newborn rats Crj:CD(SD)IGS (Charles River, Japan). Unlike the method described in part A above of producing ischemia-induced retinal neovascularization by exposing neonatal mice to a constant level of oxygen at 75±2% for 5 days, newborn rats were exposed to oxygen pulses as described below.
The newborn rats within a few hours after birth were put into the oxygen chamber (780 mm×520 mm×520 mm). The oxygen level in the experimental chamber was controlled with a computer program (Oxycycler, Reming Bioinstruments, N.Y., US). The oxygen level was maintained at 80% for 20.5 hours, then rapidly dropped to 21% for 30 minutes before a gradual return to 80% during the following 3 hours. The program was run for 11 cycles (24 hour per cycle). At the end of 11th cycle (postnatal day 11 (P11)), mothers and newborn rats were transferred to room air condition and kept for 7 days. For a seven day period step newborn rats were injected intraperitoneally with XMP.679 at doses of 2, 6 and 20 mg/kg. On P18, the rats were sacrificed, and the left eyes were enucleated. The eyes were fixed in 4% paraformaldehyde (PFA) for 1 hour. Using scissors, the cornea and sclera were removed from the eyecup. The lens was removed with tweezers, and the vitreous was thoroughly removed with tweezers and scissors. The semi-spherical retina was fixed in 4% PFA and stained, using the method of adenosine diphosphatase (ADPase) histochemistry. Abnormal neovascularization was assessed on P18 by histochemically staining retina for ADPase activity. This procedure preferentially stains retinal vascular endothelium and microglia in rats of this age. The retina was incubated in ADPase incubation medium at 37° C. for 1 hour with gentle agitation. It was then washed thoroughly in cold saline, and treated in a 1:10 dilution of ammonium sulfide for 1 minute. The retina was then washed in […] to remove sulfide. The retina was placed in a small drop of liquid on a saline-coated slide. […] The retina was put in a layer of Perma Fluor® covered with a cover glass. Glomerular buds (tiny popcorn) upon the surface of the regina, fan shaped neovascular fronds, and ridges (vascular complexes that cause a distinct elongate elevation of the retinal surface, and which usually contain several vessels running parallel to the ciliary body) were identified.
Criteria for scoring neovascular intensity were as follows: 0: Nothing; 1: <5 buds; 2: >5 buds, or a frond; 3: Ridge<half of quadrant; or 4: Ridge>half of quadrant. The retinal neovascular scores were equal to the sum of quadrant scores. […]

[3] = tested on: ischemia-induced retinal neovascularization; test: Ischemia-induced retinal neovascularization in neonatal mice; type: in vivo
From the text: To produce ischemia-induced retinal neovascularization, litters of 7-day-old (postnatal day 7, P7) C57BL/6J mice and their nursing mothers were exposed to 75±2% oxygen for 5 days and then returned to ambient air at age P12 as described in Smith et al., Invest. Ophthalmol. Vis. Sci., 1994, 35:101-111. […] Control animals received saline. After sacrifice and enucleation, flat-mounted, fluorescein-conjugated dextran-perfused retinas were examined to assess the retinal vasculature. This mouse model reflects the effects of hypoxia on inducing angiogenesis in the retina. After birth, the mice are exposed to a high level oxygen for 4-5 days. The effect of high levels of oxygen will decrease or prevent the growth of blood vessels in the retina. Once the mice have been removed from the hyperoxic condition to normal oxygen levels, the retina will develop hypoxia due to the lack of blood vessels. The hypoxia in the retina will induce many growth factors (including VEGF) which leads to a angiogenic response that can be quantitated by measuring the number of nuclei in the blood vessels above the internal limiting membrane. This mouse model of angiogenesis is thought to be a good animal reflection of retinopathy of prematurity. The main growth factor responsible for retinal angiogenesis in this mouse model is thought to be due to the expression of VEGF. […] These neovascular rufts were most prominent on P17-19, but after P23 the neovascularization regressed, and the vascular pattern normalized by P26. As described in Aiello et al., Proc. Nat'l Acad. Sci. USA, 1995, 92:10457-61, mice at P17 (n=5) were deeply anesthetized with pentobarbitol sodium (100 mg/kg) and sacrificed by cardiac perfusion with 4% paraformaldehyde in phosphate-buffered saline. Eyes were enucleated and fixed in 4% paraformaldehyde at 4° C. overnight, and enbedded in paraffin. Over 50 serial sections (6 μm) including optic nerve head were placed on microscope slides. After staining with periodic acid/Schiff reagent and hematoxylin, 10 intact sections of equal length, each 30 μm apart, were evaluated for a span of 300 μm. All retinal vascular cell nuclei anterior to the internal limiting membrane were counted in each section by a fully masked protocol. The mean of all 10 counted sections yielded average neovascular cell nuclei per 6 μm section per eye. No vascular cell nuclei anterior to the internal limiting membrane are observed in normal unmanipulated animals.

XMP.679: BPI-derived peptide derived from BPI domain II, SEQ ID NO: 3 (KLFKAQAKAKG; XMP.679; listed as Homo sapiens)
growth promoting effect [1]: 20 to 30% | retinal neovascular score (sum of quadrant scores) ([2]; 2 mg/kg/day intraperitoneal): 7.29 | retinal neovascular score (sum of quadrant scores) ([2]; 6 mg/kg/day intraperitoneal): 4.59 | change of retinal neovascularization score versus vehicle ([2]; 6 mg/kg, differences not statistically significant): reduced | retinal neovascular score (sum of quadrant scores) ([2]; 20 mg/kg/day intraperitoneal): 5.56 | decrease of number of nuclei anterior to the internal limiting membrane ([3]; 10 mg/kg daily intraperitoneal, p<0.001): 30 to 40% | retinal vasculature compared with control mice ([3]; 10 mg/kg intraperitoneal every 24 hrs P12 to P17): fewer blood vessels with much less density and tortuosity | decrease of number of nuclei anterior to the internal limiting membrane ([3]; 20 mg/kg daily intraperitoneal, p<0.01): approximately 71% | inhibition of retinal neovascularization (dose response) ([3]; range of 10-20 mg/kg): inhibits retinal neovascularization in a dose responsive manner
